In patent US12281363B2, “Methods for detecting antiviral-drug resistant virus” (Secretary of State for Health and Social Care, priority 2018, dated 2025):
Read-outs that look alike come from different tables or passages of the source.

Tested on: HSV-2
Test: Plaque reduction assay, HSV-2 clinical isolates on Vero cells
Format: cell-based
Conditions: Human alphaherpesvirus 2, Vero
Source text: Viral isolates were used to infect a sub-confluent monolayer of Vero cells at a concentration of 75 or 50 plaque forming units (PFU) per well for HSV-1 and HSV-2, respectively. […] CMC medium typically used to create a semisolid interface and prevents indiscrimate viral spreading. Other materials (e.g. agar) may also be used to create this interface.
Cells were fixed with 10% formalin and stained with crystal violet before enumeration of the plaques (microscopic observation or use of fluorescent antibodies for detection is also suitable). The data obtained from these experiments were then expressed as percent inhibition of viral infectivity relative to the no drug control.
Definitions of phenotypic drug susceptibility classification as sensitive or resistant were as follows: ACV, <3 μM or >40 μM; PCV, <10 μM or >40 μM; CDV, <24 μM or >30 μM; FOS, <250 μM or >400 μM; and ACV, <6.5 μM or >40 μM; PCV, <38 μM or >40 μM; FOS, <250 μM or >400 μM for HSV-1 and HSV-2, respectively. Any IC50 values falling in between these sensitive and resistant cut-offs were reported as intermediate resistance.
The phenotype (i.e. reactivity to a drug) of the virus was characterised by the plaque reduction assay as described above. The present inventors have characterised the resistance-causing phenotype of a large number of TK and DNA pol mutations.

## Nc1nc2c(ncn2CCC(CO)CO)c(=O)[nH]1 [Penciclovir, penciclovir]
Isolate HPG001, HSV-2 TK A125T (373G>A), read-out: Drug susceptibility (IC50 value)
  IC50: 8.2 µM
Isolate HPG001, HSV-2 TK A125T (373G>A), read-out: Drug susceptibility Penciclovir (PCV)
  IC50: < 38 µM
Isolate HPG001, HSV-2 pol H714R (2141A>G), read-out: Drug susceptibility (IC50 value)
  IC50: 8.2 µM
Isolate HPG001, HSV-2 pol H714R (2141A>G), read-out: Drug susceptibility Penciclovir (PCV)
  IC50: < 38 µM
Isolate HPG004, HSV-2 pol M494T (1481T>C), also pol S729N, read-out: Drug susceptibility (IC50 value)
  IC50: > 160 µM
Isolate HPG004, HSV-2 pol M494T (1481T>C), also pol S729N, read-out: Drug susceptibility Penciclovir (PCV)
  IC50: > 40 µM
Isolate HPG007, HSV-2 pol R628G (1882C>G), read-out: Drug susceptibility (IC50 value)
  IC50: > 160 µM
Isolate HPG007, HSV-2 pol R628G (1882C>G), read-out: Drug susceptibility Penciclovir (PCV)
  IC50: > 40 µM
Isolate HPG017, HSV-2 TK Q186H (558G>T), read-out: Drug susceptibility (IC50 value)
  IC50: 64.7 µM
Isolate HPG017, HSV-2 TK Q186H (558G>T), read-out: Drug susceptibility Penciclovir (PCV)
  IC50: > 40 µM
Isolate HPG022, HSV-2 TK E213D (639A>C), read-out: Drug susceptibility (IC50 value)
  IC50: 26.9 µM
Isolate HPG022, HSV-2 TK E213D (639A>C), read-out: Drug susceptibility Penciclovir (PCV)
  IC50: < 38 µM
Isolate HPG022, HSV-2 pol D174Y (520G>T), read-out: Drug susceptibility (IC50 value)
  IC50: 26.9 µM
Isolate HPG022, HSV-2 pol D174Y (520G>T), read-out: Drug susceptibility Penciclovir (PCV)
  IC50: < 38 µM
Isolate HPG023, HSV-2 TK Q186H (558G>T), read-out: Drug susceptibility (IC50 value)
  IC50: 31.1 µM
Isolate HPG023, HSV-2 TK Q186H (558G>T), read-out: Drug susceptibility Penciclovir (PCV)
  IC50: < 38 µM
Isolate HPG024, HSV-2 TK E213D (639A>C), read-out: Drug susceptibility (IC50 value)
  IC50: 9.08 µM
Isolate HPG024, HSV-2 TK E213D (639A>C), read-out: Drug susceptibility Penciclovir (PCV)
  IC50: < 38 µM
Isolate HPG028, HSV-2 TK 98stop or A94fs (276delG, 278delG, 279delG, or 280delG), read-out: Drug susceptibility (IC50 value)
  IC50: > 160 µM
Isolate HPG028, HSV-2 TK 98stop or A94fs (276delG, 278delG, 279delG, or 280delG), read-out: Drug susceptibility Penciclovir (PCV)
  IC50: > 40 µM
Isolate HPG028, HSV-2 pol E776Q (2326G>C), also TK deletion (G) nt 276-280, read-out: Drug susceptibility (IC50 value)
  IC50: > 160 µM
Isolate HPG028, HSV-2 pol E776Q (2326G>C), also TK deletion (G) nt 276-280, read-out: Drug susceptibility Penciclovir (PCV)
  IC50: > 40 µM
Isolate HPG028, HSV-2 pol R775C, R775W (2323C>T; 2325C>G), also TK deletion (G) nt 276-280, read-out: Drug susceptibility (IC50 value)
  IC50: > 160 µM
Isolate HPG028, HSV-2 pol R775C, R775W (2323C>T; 2325C>G), also TK deletion (G) nt 276-280, read-out: Drug susceptibility Penciclovir (PCV)
  IC50: > 40 µM
Isolate HPG030, HSV-2 TK Q90stop (268C>T), read-out: Drug susceptibility (IC50 value)
  IC50: > 160 µM
Isolate HPG030, HSV-2 TK Q90stop (268C>T), read-out: Drug susceptibility Penciclovir (PCV)
  IC50: > 40 µM
Isolate HPG030, HSV-2 pol E761K (2281G>A), also TK Q90stop, read-out: Drug susceptibility (IC50 value)
  IC50: > 160 µM
Isolate HPG030, HSV-2 pol E761K (2281G>A), also TK Q90stop, read-out: Drug susceptibility Penciclovir (PCV)
  IC50: > 40 µM
Isolate HPG034, HSV-2 TK L313S (938A>C), read-out: Drug susceptibility Penciclovir (PCV)
  IC50: > 40 µM
Isolate HPG036, HSV-2 TK E84K (250G>A), read-out: Drug susceptibility (IC50 value)
  IC50: > 160 µM
Isolate HPG036, HSV-2 TK E84K (250G>A), read-out: Drug susceptibility Penciclovir (PCV)
  IC50: > 40 µM
Isolate HPG038, HSV-2 TK R34C (100C>T), read-out: Drug susceptibility (IC50 value)
  IC50: 9.64 µM
Isolate HPG038, HSV-2 TK R34C (100C>T), read-out: Drug susceptibility Penciclovir (PCV)
  IC50: < 38 µM
Isolate HPG044, HSV-2 TK M86L (256A>C), read-out: Drug susceptibility (IC50 value)
  IC50: > 160 µM
Isolate HPG044, HSV-2 TK M86L (256A>C), read-out: Drug susceptibility Penciclovir (PCV)
  IC50: > 40 µM
Isolate HPG048, HSV-2 TK Q90stop (268C>T), read-out: Drug susceptibility (IC50 value)
  IC50: > 160 µM
Isolate HPG048, HSV-2 TK Q90stop (268C>T), read-out: Drug susceptibility Penciclovir (PCV)
  IC50: > 40 µM
Isolate HPG048, HSV-2 pol E761K (2281G>A), also TK Q90stop, read-out: Drug susceptibility (IC50 value)
  IC50: > 160 µM
Isolate HPG048, HSV-2 pol E761K (2281G>A), also TK Q90stop, read-out: Drug susceptibility Penciclovir (PCV)
  IC50: > 40 µM
Isolate HPG057, HSV-2 TK 98stop or A94fs (276delG, 278delG, 279delG, or 280delG), read-out: Drug susceptibility (IC50 value)
  IC50: > 160 µM
Isolate HPG057, HSV-2 TK 98stop or A94fs (276delG, 278delG, 279delG, or 280delG), read-out: Drug susceptibility Penciclovir (PCV)
  IC50: > 40 µM
Isolate HPG058, HSV-2 TK 183stop or P154fs (458delC, 459delC, 460delC, or 461delC), read-out: Drug susceptibility (IC50 value)
  IC50: > 160 µM
Isolate HPG058, HSV-2 TK 183stop or P154fs (458delC, 459delC, 460delC, or 461delC), read-out: Drug susceptibility Penciclovir (PCV)
  IC50: > 40 µM
read-out: Drug susceptibility (IC50 value), isolate HPG034, HSV-2 TK L313S (938A>C)
  IC50: > 160 µM
read-out: Drug susceptibility (IC50 value), isolate HPG056, HSV-2 pol M447L (1339A>C)
  IC50: 8.61 µM
read-out: Drug susceptibility Penciclovir (PCV), isolate HPG056, HSV-2 pol M447L (1339A>C)
  IC50: < 38 µM
